Measured values reported in US20060057732A1, “Methods in the diagnosis of pulmonary embolism” (Aerocrine AB, priority 2004, published 2006).

What was measured:
[1] = Thrombin infusion as pro-thrombotic challenge; assay type: in vivo, rabbit; conditions: thrombin 10-250 Units; when cardiovascular parameters indicated a thrombotic event
Procedure: Another experiment was performed with infusion of thrombin (10-250 Units) as pro-thrombotic challenge. Also in this experiment, an increase in exhaled NO was obtained when measurement of cardiovascular parameters indicated an activation of a thrombotic event.

NO-production = test: L-NAME pre-treatment (inhibited NO-production) before and during muscle emboli challenge in anaesthetised rabbits (Group 2); assay type: in vivo
Procedure: The experiments were approved by the local animal ethics committee. Male white New Zealand rabbits (n=20, body weight 2.456±0.086 kg) were anaesthetised via an ear vein with sodium pentobarbital, 6 mg ml^−1 in normal saline, 40-60 mg kg^−1. The animals were placed in supine position and tracheotomised just below the cricoid cartilage to allow mechanical ventilation using a tracheal cannula with an outer diameter of 5 mm. The animals were ventilated by a Harvard Apparatus rodent ventilator (model 683, Harvard Apparatus, South Natick, Mass., USA). The ventilator was supplied with NO-free air using a charcoal filter (110×11 cm). Ventilation rate was 40 min^−1 at constant volume where the tidal volume was initially adjusted to keep the end-tidal CO2 at 4.5-5.3% as determined by a ventilatory monitor (Oscar-Oxy, Datex, Helsinki, Finland) sampling gas (150 ml min^−1, 15-20% of minute ventilation) from one of two side-arms connected to the tracheal cannula, and using a de-humidifying tube. The minute ventilation was 0.64-0.96 l min^−1. To the other side arm a pressure transducer (Statham, Hato Rey, Puerto Rico) was connected thus monitoring the insufflation pressure. The gas from the ventilator outlet was led through a switching valve to either of two beakers creating a positive end-expiratory pressure (PEEP) of 1-2 cmH2O or 4-5 cmH2O. During the experiment the gas flow was altered between the lower PEEP (9 min) and the higher PEEP (1 min) with an interval of totally 10 min. A continuous infusion containing glucose (24.3 g l^−1), dextran 70 (26.5 g l^−1), NaHCO3 (6,2 g l^−1), sodium pentobarbital (4.1 g l^−1) and pancuronium bromide ([…]) was administrated at a rate of 5 ml kg^−1 h^−1 via the same ear vein by means of a Terumo STC-521 syringe pump (Terumo Corp., Tokyo, Japan). A heparinised catheter was inserted in the left common carotid artery for blood pressure and heart rate recordings (pressure transducer, Staham, Hato Rey, Puerto Rico), and arterial blood sampling. Another catheter was inserted in the right jugular vein for drug and muscle emboli administration. Body temperature was maintained at 37-38.5° C. by means of a heating pad connected to a thermostat. The muscles from the anterior compartment of the right lower hind limb were resected and placed in normal saline. Hereafter the animals were allowed a 30-60 min intervention-free period to obtain stable circulatory conditions and stable concentrations of expired NO.
NO concentration, in mixed exhaled gas, was continuously measured by means of a chemiluminescence based system (NIOX®, AEROCRINE AB, Solna, Sweden) sampling at 100 ml min^−1 at the end of a mixing chamber connected to the ventilator exhaust. The full mixing of expired air thus measured on was intermittently checked by monitor CO2 concentration in the same chamber. In a few experiments, gas for NO measurement was sampled from the trachea at the same point as for tidal CO2 measurements, thus yielding breath by breath NO concentrations. Calibration was done using certified NO standard gas in nitrogen (AGA Specialgas, Lidingö, Sweden).
The resected muscle tissue was cleared from all visible connective tissue and then homogenized and dissolved in normal saline to a concentration of 0,1 g muscle ml^−1. 50 IE heparin was added to the mixture. The homogenate was filtered through a filter (500 μm) to prevent clotting in the three way stop-cock.
The animals were divided into two groups; 1) one group receiving a high dose (58-120 mg kg^−1) muscle homogenate and 2) a second group receiving the nitric oxide inhibitor L-NAME (30 mg kg^−1) 40 min before challenge with lower doses (30 to 7.5 mg kg^−1) muscle homogenate, since initial pilot experiments indicated a marked enhancement of emboli effects after L-NAME pre-treatment. […]

[2] = Group 2, during L-NAME pre-treatment, time -5 min, before challenge

| Compound | exhaled NO change [1] | PaCO2 (NO-production; [2]) | PaO2 (NO-production; [2]) | pH (arterial) (NO-production; [2]) | ETCO2 after L-NAME infusion (NO-production; L-NAME 30 mg kg-1, before muscle emboli challenge (time=-5), before L-NAME 4.9±0.1) | FENO after L-NAME infusion (NO-production; L-NAME 30 mg kg-1, before muscle emboli challenge (time=-5), before L-NAME 20.9±1.0 ppb, n=4) | MAP after L-NAME infusion (NO-production; L-NAME 30 mg kg-1, before muscle emboli challenge (time=-5), before L-NAME 105±6) | HR after L-NAME infusion (NO-production; L-NAME 30 mg kg-1, before muscle emboli challenge (time=-5), before L-NAME 286±11) | ETCO2, lowest observed value (NO-production; L-NAME 30 mg kg-1 pre-treatment + muscle emboli infusion, at 4 min, n=4 incl. dead animals) | MAP, first drop (NO-production; L-NAME 30 mg kg-1 pre-treatment + muscle emboli infusion, at 12 min) | MAP, lowest observed value (NO-production; L-NAME 30 mg kg-1 pre-treatment + muscle emboli infusion, at 60 min) | HR change (NO-production; L-NAME 30 mg kg-1 pre-treatment + muscle emboli infusion, not significant) | Survival after muscle emboli infusion (NO-production; L-NAME 30 mg kg-1 pre-treatment, 7.5 to 30 mg kg-1 homogenate, four rabbits) |
| --- | --- | --- | --- | --- | --- | --- | --- | --- | --- | --- | --- | --- | --- |
| thrombin | increase |  |  |  |  |  |  |  |  |  |  |  |  |
| COC(=O)[C@@H](N)CCCNC(=N)N[N+](=O)[O-] [L-NAME, N^G-nitro-L-arginine methyl ester] |  | 4.3 ± 0.2 kPa | 8.6 ± 0.6 kPa | 7.50 ± 0.02 | 4.8±0.2 kPa | 0 ppb | 121±8.2 cmH2O | 314±34 beats min^-1 | 2.6±1.1 kPa | 52.4±25.5 cmH2O | 44.4±29.6 cmH2O | decreased | two animals survived 60 min |
